In patent publication US7776312B2, “Method of treating Alzheimer's disease comprising administering deferoxamine (DFO) to the upper one-third of the nasal cavity” (HealthPartners Research Foundation, priority 2004, dated 2010):
Where two headings read alike, the source gives them in different places.

What was measured:
[1] = humans, intravenous; cited from earlier work
[2] = system: middle cerebral artery occlusion (MCAO); experiment: Intranasal DFO pretreatment, infarct volume and brain swelling 24 hours after MCAO; format: in vivo, rats; conditions: 3 doses of 60 μl 10% intranasal DFO 48 hours before MCAO
Method: Further, another experiment was conducted to further discover the mechanisms that may be manipulated in order to achieve the desired therapeutic results. Thus, rats were treated with 3 doses of 60 μl 10% intranasal deferoxamine (DFO), or water, at 3 hours intervals. The two groups of rats were either sacrificed or subjected to a 2-hour Middle Cerebral Artery Occlusion (MCAO) 48 hours later. Those rats undergoing the MCAO were sacrificed 24 hours after the MCAO.
In addition to the bioarray and PCR results, total infarct volume, cortical infarct volume and brain swelling were assessed for the rats pretreated with intranasal DFO with stroke and untreated rats with stroke 24 hours after MCAO.

[3] = system: middle cerebral artery occlusion (MCAO); experiment: Pre-stroke intranasal DFO, 2-hour middle cerebral artery occlusion (MCAO), infarct volume by TTC staining; format: in vivo, rats; conditions: for total infarct volume: rats
[4] = system: hypoxia-inducible factor-1α (HIF-1α); experiment: Western blot of brain proteins for HIF-1α after intranasal DFO; format: in vivo; conditions: rats, Western blot quantitation
Source text: Intranasal DFO reduced infarct volumes by 60% when expressed as either total infarct, cortical infarct, or striatal infarct volume. Brain proteins from olfactory bulb and from striatum were subjected to Western blot analysis for hypoxia-inducible factor-1α (HIF-1α). See FIG. 1 for a bar graph illustrating the results (10) for control animals (C) and pretreated animals (P). The results are shown broken into the cortex (12), striatum (14) and overall total (16) infarct volumes for control/pretreated animals. […] Here, the control animals' (C) total infarct volume is 175.93 mm^3 (18), while the pretreated animals' (P) total infarct volume is 70.57 mm^3 (20). Thus, a reduction of 60% in infarct volume is realized by way of this pretreatment regimen.
Additional brain samples from animals treated with intranasal DFO were generated, total RNA was isolated from olfactory bulb and striatum, and cDNA was generated using primers specific for HIF-1α.

[5] = system: middle cerebral artery occlusion (MCAO); experiment: Post-stroke intranasal DFO at start of reperfusion after MCAO, infarct volume; format: in vivo, rats
Method: In this regard, let us now turn to FIG. 4. Here, the experimental method is as follows: The method is the same as described above in connection with FIG. 1, except that the subjects are not pretreated. […] Six doses of 10% DFO (6 mg DFO/dose) were administered in this manner; three doses of 10% DFO at 2-hour intervals on the day of surgery and the remaining three doses of 10% DFO at three-hour intervals on the day following surgery (40).

[6] = Intranasal delivery of DFO (59Fe-labeled ferrioxamine), tissue concentrations by scintillation counting; format: in vivo, rats; conditions: rat, 6 mg, intranasal ~6 mg, 25 min. after onset of delivery
Source text: Following delivery, tissues were removed for analysis.

[7] = cited from earlier work
[8] = one dose of 10% DFO intranasal pre-stroke, 5 days after MCAO
[9] = three doses of 3% DFO intranasal pre-stroke
[10] = three doses of 10% DFO intranasal pre-stroke, 5 days after MCAO

SMILES: CC(=O)N(O)CCCCCNC(=O)CCC(=O)N(O)CCCCCNC(=O)CCC(=O)N(O)CCCCCN [DFO, deferoxamine]
- plasma half-life [1]: less than 10 minutes
- decrease in brain swelling [2]: 71%
- decrease in cortical infarct volume [2]: 72%
- decrease in total infarct volume ([2]; rats): 56%
- overall infarct volume reduction [3, 8]: 26%
- total infarct volume [3, 8]: 86.72 mm^3
- total infarct volume [3, 9]: 101.83 mm^3
- total infarct volume ([3]; three doses of 10% DFO (6 mg each) intranasal 48 hours before 2-hour MCAO, 5 days after MCAO): 70.57 mm^3
- reduction of total infarct volume [3, 9]: 35%
- reduction of cortical infarct volume [3, 10]: 60%
- reduction of striatal infarct volume [3, 10]: 60%
- reduction of total infarct volume ([3]; three doses of 10% DFO intranasal pre-stroke, 5 days after MCAO, vs distilled water controls): 60%
- elevation of HIF-1α protein in olfactory bulb [4]: approximately 30 fold
- elevation of HIF-1α protein in striatum [4]: ~20 fold
- total infarct volume ([5]; rats, six doses of 10% DFO (6 mg/dose) intranasal post-stroke from start of reperfusion): 116 mm^3
- reduction of total infarct volume ([5]; six doses of 10% DFO intranasal post-stroke): 55%
- concentration at 25 min ([6]; olfactory epithelium, read-out: DFO concentration, Olfactory Epithelium): 12000 µM
- concentration at 25 min ([6]; septal nucleus, read-out: DFO concentration, Septal Nucleus): 2.6 µM
- concentration at 25 min ([6]; thalamus, read-out: DFO concentration, Thalamus): 1.1 µM
- effect of intravenous bolus injection [7]: causes acute hypotension
